For 21 compounds, IC50 and EC50 results are on record in patent US7265152B2 (ViroPharma Incorporated, priority 2002, dated 2007).

One assay has as its target T1, HCV NS5B (Hepatitis C virus genotype 1b, UniProt Q9WMX2).
T1 construct: fusion protein, of which the carboxyl terminal 21 amino acids were removed to enhance its solubility; His tag (GSHHHHHH); made in house; host or cells: E. coli
Description: Inhibition of viral RNA-dependent RNA polymerase (RdRp), in vitro biochemical assay. Further details: species or system HCV genotype 1b virus (BB7). Particulars: read-out: HCV pol-BB7 IC50. From the text: The HCV NS5B-directed RdRp activity was established and characterized in a standard in vitro biochemical assay using a purified HCV NS5B protein derived from the consensus sequence of a patient infected with HCV genotype 1b virus (BB7). (See Blight K J et al., Science. 2000, 290:1972-4). The NS5B consensus sequence was cloned and expressed in E. coli as a histidine tagged (GSHHHHHH) fusion protein, of which the carboxyl terminal 21 amino acids were removed to enhance its solubility.
In addition to evaluating their activity in the replicon assay, representative compounds within the scope of the present invention, as shown in examples 1-453 of Table 1, were also evaluated for antiviral activity using this assay. A measure of the inhibitory activity of compounds of the invention may be expressed as IC50 values. IC50 values represent the concentration of the compound at which 50% of the RdRp activity is inhibited. […] These low concentrations of test compounds required to achieve 50% inhibition of the RdRp activity indicate that the compounds of the invention are effective at inhibiting RNA synthesis by viral RdRp enzymes.

For assay [1], the system named is HCV replicon (BB7 sequence) in Huh-7-Clone A cells. Kind of assay: HCV replicon assay: ELISA of NS5A protein in replicon-containing cells (Inhibition of Viral RNA Replication). Format: cell-based. Particulars: read-out: Replicon. From the text:
Antiviral activity of representative compounds of the invention was first evaluated in a human liver-derived cell line (Huh-7-Clone A) containing the HCV replicon (BB7 sequence) (See Lohmann et al. Science. 1999, 285:110-3; Blight K J et al., Science. 2000, 290:1972-4; Pietschmann, T. et al., J. Virol. 2001, 73:1252-1264; and Lohmann, V. et al., J. Virol. 2001, 75:1437-1449). The HCV replicon is a subgenomic viral RNA that expresses the HCV proteins required for its own replication. These proteins include non-structural proteins NS3, NS4A, NS4B, NS5A and NS5B. The replicon also contains a foreign gene encoding a drug-selectable marker (neomycin phosphotransferase) to allow for G418 (neomycin) selection of cells that contain the replicon.
An ELISA (enzyme-linked immunosorbant assay) was used to determine the effect of compounds within the scope of the invention on the amount of HCV NS5A protein produced after a 72-hour incubation of the replicon-containing cells in the presence of varying concentrations of compound. COSTAR® 96-well cell culture plates were used but other known cell culture plates may be used. After incubation, media is removed from wells and the cells are fixed to the assay plate using 0.05% glutaraldehyde. The glutaraldehyde is then washed off using phosphate-buffered saline (PBS) following a 1 hour incubation and cells are blocked for non-specific antibody binding using for example SUPERBLOCK® reagent (blocking buffer) in PBS. The blocking agent is rinsed from the cells with PBS after 1 hour at 37° C. and primary monoclonal antibody is added to each well containing compound. Primary antibody is incubated for 1 hour at 37° C. and rinsed 3 times with PBS containing 0.02% TWEEN-20™ before addition of Horseradish Peroxidase (HRP) conjugated secondary antibody. HRP is incubated for 1 hour at 37° C. and rinsed several times, first with PBS/TWEEN-20™ followed by PBS alone. To quantify peroxidase activity, 3,3′,5, 5′-tetramethylbenzidine (TMB) substrate is added to the plate and after 30 minutes, the plates are read in an ELISA plate reader at an OD of 650 nm. Compound dose response was measured in an 8-point dose curve diluted serially to determine the inhibitory concentration at 50% (EC50 value). […] Ranges of 50% effective concentrations (EC50s) for representative compounds within the scope of this invention are listed in Table 1. Preferred compounds have 50% effective concentrations at about 30 μM or less, more preferred compounds have 50% effective concentrations at about 5 μM or less, and most preferred compounds have 50% effective concentrations at about 0.5 μM or less.

The mark [2] stands for this setting: Hepatitis C virus, ranges of EC50 in HCV replicon assay.
The mark [3] stands for this setting: HCV NS5B RdRp, BB7, class symbols A-D.
Setting [4] is: Hepatitis C virus, HCV replicon assay, ranges of EC50.
Where [5] appears, read: purified His-tagged NS5B (BB7), carboxyl terminal 21 amino acids removed.
The mark [6] stands for this setting: Hepatitis C virus, Huh-7-Clone A, NS5A ELISA, 72-hour incubation, ranges of EC50.
[7] abbreviates: HCV NS5B RdRp, BB7, activity class.
Where [8] appears, read: Hepatitis C virus, HCV replicon assay, ranges of 50% effective concentration (EC50).

pEC50, pIC50: −log10 of the molar value. Like-named read-outs stand apart in the source and are kept apart here.

`CNC(=O)c1c(-c2ccc(C#N)cc2)oc2ccc(OC(C)C)cc12` [Example 106, 2-(4-Cyano-phenyl)-5-isopropoxy-benzofuran-3-carboxylic acid methylamide]: at HCV NS5B (HCV NS5B RdRp, BB7 genotype 1b), the pIC50 is 5.30 to 6.30. Besides, the pEC50 in assay [1] (setting [2]) is greater than 4.52.

As for `CNC(=O)c1c(-c2ccc(F)cc2)oc2cc(C(C)NC)c(OC)cc12` (stereo not shown) [Example 304, 2-(4-Fluoro-phenyl)-5-methoxy-6-(1-methylamino-ethyl)-benzofuran-3-carboxylic acid methylamide], the pIC50 on HCV NS5B (setting [3]) was 5.30 to 6.30. For the same compound, the pEC50 in assay [1] (setting [4]) was less than 4.52.

For the compound `CNC(=O)c1c(-c2ccc(F)cc2)oc2cc(C(C)=O)c(O)cc12` [Example 276, 6-Acetyl-2-(4-fluoro-phenyl)-5-hydroxy-benzofuran-3-carboxylic acid methylamide], the pIC50 at HCV NS5B (setting [3]) was 5.30 to 6.30. Further, the pEC50 in assay [1] (setting [4]) is greater than 5.00.

In the case of `CNC(=O)c1c(-c2ccc(F)cc2)oc2cc(-c3c(C)n[nH]c3C)c(OC)cc12` [Example 256, 6-(3,5-Diinethyl-1H-pyrazol-4-yl)-2-(4-fluoro-phenyl)-5-methoxy-benzofuran-3-carboxylic acid methylamide], the negative-log IC50 (pIC50) at HCV NS5B (setting [3]) was no less than 6.30. The pEC50 in assay [1] (setting [4]) was greater than 6.00.

As to `CNC(=O)c1c(-c2ccccc2)oc2ccc(OC(C)C)cc12` [Example 59, 5-Isopropoxy-2-phenyl-benzofuran-3-carboxylic acid methylamide], at HCV NS5B (setting [5]), the pIC50 is 5.30 to 6.30. Moreover, the pEC50 in assay [1] (setting [6]) is greater than 4.52.

Regarding `CNC(=O)c1c(-c2ccc(F)cc2)oc2cc(-c3ccc(S(C)(=O)=O)cc3)c(OC(C)C)cc12` [Example 179, 2-(4-Fluoro-phenyl)-5-isopropoxy-6-(4-methanesulfonyl-phenyl)-benzofuran-3-carboxylic acid methylamide], the pIC50 at HCV NS5B (HCV NS5B RdRp, BB7, reported as range class) is no less than 6.30. In addition, the pEC50 in assay [1] (Hepatitis C virus, HCV replicon, range of EC50) was greater than 5.00.

In the case of `CNC(=O)c1c(-c2ccc(F)cc2)oc2cc(S(=O)(=O)NC)c(OC(C)C)cc12` [Example 143, 2-(4-Fluoro-phenyl)-5-isopropoxy-6-methylsulfamoyl-benzofuran-3-carboxylic acid methylamide], on HCV NS5B (HCV NS5B RdRp, BB7 genotype 1b), the pIC50 was no less than 6.30. Moreover, the pEC50 in assay [1] (setting [2]) was less than 4.52.

In the case of `CNC(=O)c1c(-c2ccc(Cl)s2)oc2ccc(OC)cc12` [Example 85, 2-(5-Chloro-thiophen-2-yl)-5-methoxy-benzofuran-3-carboxylic acid methylamide], the negative logarithm of the IC50 (pIC50) at HCV NS5B (setting [5]) was no less than 6.30. Besides, the pEC50 in assay [1] (setting [6]) was greater than 5.00.

In the case of `CNC(=O)c1c(-c2ccc(F)cc2)oc2cc(NS(C)(=O)=O)c(C3CCCO3)cc12` (stereo not shown) [Example 441, 2-(4-Fluoro-phenyl)-6-methanesulfonylamino-5-(tetrahydro-furan-2-yl)-benzofuran-3-carboxylic acid methylamide], the pIC50 on HCV NS5B (HCV NS5B RdRp, BB7 (genotype 1b), reported as class symbols) is no less than 6.30. Moreover, the pEC50 in assay [1] (setting [4]) is greater than 6.00.

`C=CCOc1cc2c(C(=O)NC)c(-c3ccc(F)cc3)oc2cc1NCC` [Example 366, 5-Allyloxy-6-ethylamino-2-(4-fluoro-phenyl)-benzofuran-3-carboxylic acid methylamide]: on HCV NS5B (setting [7]), the pIC50 is no less than 6.30. Also, the pEC50 in assay [1] (setting [4]) is greater than 6.00.

Regarding `CCN(c1cc2oc(-c3ccc(F)cc3)c(C(=O)NC)c2cc1F)S(C)(=O)=O` [Example 333, 6-(Ethyl-methanesulfonyl-amino)-5-fluoro-2-(4-fluoro-phenyl)-benzofuran-3-carboxylic acid methylamide], the pIC50 at HCV NS5B (setting [7]) is no less than 6.30. The pEC50 in assay [1] (setting [4]) was greater than 5.00.

Turning to `C=Cc1cc2oc(-c3ccc(F)cc3)c(C(=O)NC)c2cc1OC(C)C` [Example 157, 2-(4-Fluoro-phenyl)-5-isopropoxy-6-vinyl-benzofuran-3-carboxylic acid methylamide], the pIC50 at HCV NS5B (HCV NS5B RdRp, BB7 genotype 1b) is no less than 6.30. Besides, in assay [1] (setting [2]), the pEC50 is greater than 5.00.

In the case of `CCC(C)(O)COc1cc2c(C(=O)NC)c(-c3ccc(F)cc3)oc2cc1N1CCOCC1` (stereo not shown) [Example 251, 2-(4-Fluoro-phenyl)-5-(2-hydroxy-2-methyl-butoxy)-6-morpholin-4-yl-benzofuran-3-carboxylic acid methylamide], the pIC50 at HCV NS5B (setting [3]) is 5.30 to 6.30. For the same compound, the pEC50 in assay [1] (setting [4]) is greater than 5.00.

Regarding `CNC(=O)c1c(-c2ccc(F)cc2)oc2cc(NCC(O)CO)c(OC(C)C)cc12` (stereo not shown) [Example 113, 6-(2,3-Dihydroxy-propylamino)-2-(4-fluoro-phenyl)-5-isopropoxy-benzofuran-3-carboxylic acid methylamide], at HCV NS5B (HCV NS5B RdRp, BB7 genotype 1b), the negative logarithm of the IC50 (pIC50) is 5.30 to 6.30. Moreover, in assay [1] (setting [2]), the pEC50 is greater than 5.00.

Take `CCc1cc2c(C(=O)NC)c(-c3ccc(F)cc3)oc2cc1N(CCF)S(C)(=O)=O` [Example 337, 5-Ethyl-6-[(2-fluoro-ethyl)-methanesulfonyl-amino]-2-(4-fluoro-phenyl)-benzofuran-3-carboxylic acid methylamide]: the pIC50 on HCV NS5B (setting [7]) is no less than 6.30. In assay [1] (setting [4]), the pEC50 is greater than 6.00.

In the case of `CNC(=O)c1c(-c2ccc(F)cc2)oc2cc(N(C)S(C)(=O)=O)c(OCC(C)=O)cc12` [Example 369, 2-(4-Fluoro-phenyl)-6-(methanesulfonyl-methyl-amino)-5-(2-oxo-propoxy)-benzofuran-3-carboxylic acid methylamide], the pIC50 on HCV NS5B (setting [7]) was no less than 6.30. Moreover, in assay [1] (setting [4]), the pEC50 is greater than 6.00.

Regarding `CNC(=O)c1c(-c2ccc(F)cc2)oc2cc(S(=O)(=O)N3CCOCC3)c(OC(C)C)cc12` [Example 142, 2-(4-Fluoro-phenyl)-5-isopropoxy-6-(morpholine-4-sulfonyl)-benzofuran-3-carboxylic acid methylamide], on HCV NS5B (HCV NS5B RdRp, BB7 genotype 1b), the pIC50 was no less than 6.30. The pEC50 in assay [1] (setting [2]) is greater than 5.00.

With “2-(4-Fluoro-phenyl)-5-hydroxy-6-morpholin-4-yl-benzofuran-3-carboxylic acid methylamide [Example 124]”, the negative-log IC50 (pIC50) on HCV NS5B (HCV NS5B RdRp, BB7 genotype 1b) is 5.30 to 6.30. In addition, the pEC50 in assay [1] (ranges of EC50 in HCV replicon assay) was greater than 5.00.

For the compound `CNC(=O)c1c(-c2ccc(F)cc2)oc2cc(-c3c(C)noc3C)c(OC)cc12` [Example 28, 6-(3,5-Dimethyl-isoxazol-4-yl)-2-(4-fluoro-phenyl)-5-methoxy-benzofuran-3-carboxylic acid methylamide], on HCV NS5B (setting [5]), the pIC50 is no less than 6.30. In addition, the pEC50 in assay [1] (setting [6]) is greater than 6.00.

Take `CNC(=O)c1c(-c2ccc(F)cc2)oc2cc(NS(C)(=O)=O)c(-c3c(C)noc3C)cc12` [Example 407, 5-(3,5-Dimethyl-isoxazol-4-yl)-2-(4-fluoro-phenyl)-6-methanesulfonylamino-benzofuran-3-carboxylic acid methylamide]: in assay [1] (setting [8]), the pEC50 is greater than 5.00.

`CNC(=O)c1c(-c2ccc(F)cc2)oc2cc(N(C)S(C)(=O)=O)c(OC(C)c3nccs3)cc12` (stereo not shown) [Example 408, 2-(4-Fluoro-phenyl)-6-(methanesulfonyl-methyl-amino)-5-(1-thiazol-2-yl-ethoxy)-benzofuran-3-carboxylic acid methylamide]: the pEC50 in assay [1] (setting [8]) is greater than 6.00.
